Measured values published in ChEMBL document CHEMBL1201862, “PubChem BioAssay data set” (2004).
Calls of active or inactive are those of the source.

Assays:
Cytochrome P450 3A4 = Cytochrome P450 3A4 (Homo sapiens, UniProt P08684);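 also: CYP3A4 tested as one member of a cytochrome P450 panel screen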
Escherichia coli = assay: microbe, parasite or virus in culture
[1] = target: T1, Corticotropin-releasing factor receptor 2/Corticotropin-releasing factor-binding protein (Homo sapiens, UniProt P24387+Q13324); assay: activators of CRF receptor 2 with binding protein – uHTS hits, confirmation (AID 602473); format: functional; conditions: read-out: EC50_Mean
T1 sequence (Q13324 whole entry): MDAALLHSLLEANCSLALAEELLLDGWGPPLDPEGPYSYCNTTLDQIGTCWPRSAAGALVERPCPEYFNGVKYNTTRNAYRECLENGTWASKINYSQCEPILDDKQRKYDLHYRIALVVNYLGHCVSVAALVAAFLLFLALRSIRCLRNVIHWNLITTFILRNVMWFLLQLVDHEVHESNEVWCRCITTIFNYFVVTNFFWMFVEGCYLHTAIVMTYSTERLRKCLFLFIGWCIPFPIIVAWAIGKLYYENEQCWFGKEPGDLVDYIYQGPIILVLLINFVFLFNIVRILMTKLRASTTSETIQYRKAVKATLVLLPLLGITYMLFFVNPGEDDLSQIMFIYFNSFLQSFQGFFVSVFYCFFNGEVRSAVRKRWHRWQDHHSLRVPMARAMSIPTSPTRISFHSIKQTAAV
T1 sequence (P24387 whole entry): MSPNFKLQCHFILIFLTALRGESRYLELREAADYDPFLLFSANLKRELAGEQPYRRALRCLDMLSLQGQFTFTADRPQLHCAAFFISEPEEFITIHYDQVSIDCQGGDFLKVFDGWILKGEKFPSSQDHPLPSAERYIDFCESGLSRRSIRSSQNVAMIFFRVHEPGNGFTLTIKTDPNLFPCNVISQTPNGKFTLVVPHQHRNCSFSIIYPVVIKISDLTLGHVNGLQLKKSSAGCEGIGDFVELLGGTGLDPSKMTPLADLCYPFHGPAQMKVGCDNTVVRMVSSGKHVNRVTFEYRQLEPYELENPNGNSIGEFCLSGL

[2] = target: T1, Corticotropin-releasing factor receptor 2/Corticotropin-releasing factor-binding protein; assay: Dose Response confirmation of uHTS hits for small molecule antagonists of the CRF-binding protein and CRF-R2 receptor complex.; format: functional; conditions: read-out: IC50_Mean
[3] = CRF-BP/CRF-R2 complex antagonists, dose response, cell-based, uHTS hits, 384-well (AID 651639); format: functional, Homo sapiens; conditions: read-out: IC50_Mean
[4] = cytotoxicity toward DRD oncogenic fibroblasts, dose response, cell-based, non-viral oncogenic, luminescence (AID 1934); format: functional; conditions: Homo sapiens
[5] = growth suppression of beta-catenin-knockout colon cells, dose response, cell-based, HCT116, human colon tumor (AID 1045); format: functional;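 also: HCT116 colon tumor cells with beta catenin knocked out; cells exposed to compound for 60 hours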
BJ [6] = assay: cytotoxicity toward BJ-TERT-LT-ST fibroblasts, dose response, cell-based, RAS-independent, luminescence (AID 1935); format: functional; conditions: Homo sapiens;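 also: BJ fibroblasts immortalized with TERT plus LT and ST oncogenes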
[7] = cytotoxicity in HEK-293T cells, dose response, cytotoxicity control for TCR NF-kB inhibitor project, luminescence, T-cell screen hits (AID 489026); format: functional, cell-based;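 also: cells exposed to compound about 14 hours before the viability readout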
BJ [8] = assay: cytotoxicity toward BJ-TERT fibroblasts, dose response, cell-based, RAS-independent, luminescence (AID 1933); format: functional; conditions: Homo sapiens
BJ [9] = assay: cells; format: functional, cell-based; conditions: Homo sapiens, read-out: EC50
[10] = growth suppression of PTEN-null colon cells, dose response, cell-based, HCT116 PTEN knockout (AID 1047); format: functional;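 also: HCT116 colon tumor cells with PTEN knocked out; cells exposed to compound for 60 hours before readout; potency for loss of cell viability measured by luminescence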

Chain of Cytochrome P450 3A4 (P08684 whole entry): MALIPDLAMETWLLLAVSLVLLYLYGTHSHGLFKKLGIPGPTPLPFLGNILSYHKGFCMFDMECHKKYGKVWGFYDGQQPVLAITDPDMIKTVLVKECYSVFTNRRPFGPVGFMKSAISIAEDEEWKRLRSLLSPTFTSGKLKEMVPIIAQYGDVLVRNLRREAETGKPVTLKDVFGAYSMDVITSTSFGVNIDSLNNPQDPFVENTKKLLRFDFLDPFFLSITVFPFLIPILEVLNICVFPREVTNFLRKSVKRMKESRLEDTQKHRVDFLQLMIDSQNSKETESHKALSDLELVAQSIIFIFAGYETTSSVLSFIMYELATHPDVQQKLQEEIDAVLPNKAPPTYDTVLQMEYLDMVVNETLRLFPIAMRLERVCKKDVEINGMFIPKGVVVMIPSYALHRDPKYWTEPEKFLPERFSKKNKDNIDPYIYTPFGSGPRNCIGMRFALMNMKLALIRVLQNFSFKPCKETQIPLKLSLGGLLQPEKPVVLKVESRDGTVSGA

| Compound | AC50 (Cytochrome P450 3A4) | EC50 [1] | IC50 [2] | IC50 [3] | further results |
| --- | --- | --- | --- | --- | --- |
| Cc1ccc(-c2cc(C(=O)OCC(=O)N(C)c3c(N)n(Cc4ccccc4)c(=O)[nH]c3=O)c3ccccc3n2)o1 | – | – | – | – | AC50 (Escherichia coli): 25.8 µM (active) |
| COC(=O)C1=NN(c2ccccc2)C2(S1)SC(C(C)=O)=C(C)N2c1ccccc1 (stereo unspecified) | – | > 53 µM (inactive) | 25.7 µM (active) | 19 µM (active) | – |
| COc1cc(C(=O)N2CCN(c3cccc(C)c3C)CC2)cc(OC)c1OC | – | – | – | – | EC50 [4]: 11.8 µM (inconclusive); EC50 [5]: 0.721 µM (active); EC50 (BJ [6]): 4.12 µM (active); IC50 [7]: > 80 µM (inactive); EC50 (BJ [8]): 7.81 µM (inconclusive); EC50 (BJ [9]): 20.4 µM (active); EC50 [10]: 0.876 µM (active) |
| CC1(C)CC(=O)c2cnc(N)nc2C1 | inconclusive | – | – | – | – |

Further lines, with some results ahead:

| AC50 (Cytochrome P450 3A4) | EC50 [1] | IC50 [2] | IC50 [3] | Compound | further results |
| --- | --- | --- | --- | --- | --- |
| inconclusive | – | – | – | COc1ccc(CNC(C)(C)C)cc1Cl.Cl | – |
| – | > 53 µM (inactive) | < 0.368 µM (active) | > 20 µM (inactive) | Cc1nn(Cc2ccc(Cl)cc2)c(C)c1NC(=O)c1ccc([N+](=O)[O-])cc1 | – |
